Converted amounts (≈) assume the structure as drawn. Structures can show the parent of a compound that is named as a salt. Where two headings read alike, the source gives them in different places.
Legend:
Assay type in all cases: cell-based
[1] = tested on: Staphylococcus aureus NRS384 (MRSA); experiment: Broth microdilution MIC, S. aureus NRS384 (MRSA); parameters: MIC NRS 384 (MRSA): unit not given here; details: broth microdilution, 37° C., 20 hours; for MIC: Staphylococcus aureus, read-out: MIC NRS 384 (MRSA)
Summary of the method: (§1)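 Broth microdilution in strain-specific test medium with ~5.0×10^5 cfu/ml inoculum, 1% DMSO and two-fold compound dilutions from 64 to 0.0625 μg/ml. Plates were held 20 hours at 37° C in ambient air. S. pneumoniae colonies were grown beforehand on blood agar in 5% CO2.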

[2] = tested on: Staphylococcus aureus ATCC 29213 (MSSA); experiment: Broth microdilution MIC, S. aureus ATCC 29213 (MSSA); details: read-out: MIC S. aureus ATCC 29213 (MSSA)
Summary of the method: as §1

[3] = tested on: Enterococcus faecalis ATCC 29212; experiment: Broth microdilution MIC, E. faecalis ATCC 29212; details: read-out: MIC E. faecalis ATCC 29212
Summary of the method: as §1

[4] = tested on: Enterococcus faecium ATCC 700221 (VRE); experiment: Broth microdilution MIC, E. faecium ATCC 700221 (VRE); parameters: MIC E. faecium ATCC 700221 (VRE): unit: ug/mL; details: broth microdilution, 37° C., 20 hours; for MIC: Enterococcus faecium, read-out: MIC E. faecium ATCC 700221 (VRE)
Summary of the method: as §1

[5] = tested on: Streptococcus pneumoniae ATCC 49619; experiment: Broth microdilution MIC, S. pneumoniae ATCC 49619; details: read-out: MIC S. pneumoniae ATCC 49619
Summary of the method: as §1

[6] = tested on: Bacillus subtilis ATCC 6633; experiment: Broth microdilution MIC, B. subtilis ATCC 6633; details: read-out: MIC B. subtilis ATCC 6633
Summary of the method: as §1

[7] = tested on: Escherichia coli ATCC 25922; experiment: Broth microdilution MIC, E. coli ATCC 25922 (MHIIB w & w/o 4 mM EDTA); details: for MIC: Escherichia coli, read-out: MIC E. coli ATCC 25922; for MIC E. coli ATCC 25922 + 4 mM EDTA: with 4 mM EDTA
Summary of the method: as §1

[8] = broth microdilution, 37° C., 20 hours
[9] = ATCC29212, broth microdilution, 37° C., 20 hours
[10] = ATCC49619, broth microdilution, 37° C., 20 hours
[11] = ATCC6633, broth microdilution, 37° C., 20 hours
[12] = ATCC25922, without EDTA, broth microdilution, 37° C., 20 hours

MIC [1] [µg/mL] | MIC [2, 8] [µg/mL] | MIC [3, 9] [µg/mL] | MIC [4] [µg/mL] | MIC [5, 10] [µg/mL] | MIC [6, 11] [µg/mL] | MIC [7, 12] [µg/mL] | MIC E. coli ATCC 25922 + 4 mM EDTA [7, 8] | MIC NRS 384 (MRSA) [1] | MIC E. faecium ATCC 700221 (VRE) [4] | Structure (SMILES) | MIC ([2]; 20 h) [µg/mL] | MIC ([3]; ATCC29212, 20 h) [µg/mL] | MIC ([5]; ATCC49619, 20 h) [µg/mL] | MIC ([6]; ATCC6633, 20 h) [µg/mL] | MIC ([7]; ATCC25922, 20 h) [µg/mL]
16 (≈ 38 µM) | 32 (≈ 76 µM) | 16 (≈ 38 µM) | 8 (≈ 19 µM) | 8 (≈ 19 µM) | 4 (≈ 9.5 µM) | > 64 | >64 µg/mL | – | – | O=c1[nH]c(NCc2ccc(Cl)c(Cl)c2)nc2cnn(Cc3coc(CO)n3)c12 [Compound 171, 5-((3,4-dichlorobenzyl)amino)-1-((2-(hydroxymethyl)oxazol-4-yl)methyl)-1H-pyrazolo[4,3-d]pyrimidin-7(6H)-one] | – | – | – | – | –
– | 8 | 8 | – | 8 | 2 | > 64 | >64 µg/mL | 8/8 | 2/2 | Cl.O=c1[nH]c(NCc2ccc(Cl)c(Cl)c2)nc2cnn(CCOc3ccc(CO)nc3)c12 [Compound 174, 5-((3,4-dichlorobenzyl)amino)-1-(2-((6-(hydroxymethyl)pyridin-3-yl)oxy)ethyl)-1H-pyrazolo[4,3-d]pyrimidin-7(6H)-one hydrochloride] | – | – | – | – | –
16 (≈ 34.4 µM) | 16 (≈ 34.4 µM) | 8 (≈ 17.2 µM) | 4 (≈ 8.6 µM) | 4 (≈ 8.6 µM) | 4 (≈ 8.6 µM) | > 64 | >64 µg/mL | – | – | COCCN1CC(Cn2ncc3nc(NCc4ccc(Cl)c(Cl)c4)[nH]c(=O)c32)CC1=O (centres unmarked) [Compound 176, 5-((3,4-dichlorobenzyl)amino)-1-((1-(2-methoxyethyl)-5-oxopyrrolidin-3-yl)methyl)-1H-pyrazolo[4,3-d]pyrimidin-7(6H)-one] | – | – | – | – | –
– | 4 (≈ 9.75 µM) | 8 (≈ 19.5 µM) | – | 4 (≈ 9.75 µM) | 2 (≈ 4.87 µM) | > 64 | >64 µg/mL | 4/4 | 4/4 | O=c1[nH]c(NCc2ccc(Cl)c(Cl)c2)nc2cnn(CCOC3COC3)c12 [Compound 178, 5-((3,4-Dichlorobenzyl)amino)-1-(2-(oxetan-3-yloxy)ethyl)-1H-pyrazolo[4,3-d]pyrimidin-7(6H)-one] | – | – | – | – | –
– | 4 | 8 | – | 4 | 1 | > 64 | >64. ug/ml | 4/2 | 4/1 | Cl.O=c1[nH]c(NCc2ccc(Cl)c(Cl)c2)nc2cnn(CCOCc3cccnc3)c12 [Compound 181, 5-((3,4-Dichlorobenzyl)amino)-1-(2-(pyridin-3-ylmethoxy)ethyl)-1H-pyrazolo[4,3-d]pyrimidin-7(6H)-one hydrochloride] | – | – | – | – | –
64 | 64 | 32 | 32 | 8 | 8 | > 64 | >64 µg/mL | – | – | COCC(CN(C)C)OCCn1ncc2nc(NCc3ccc(Cl)c(Cl)c3)[nH]c(=O)c21.Cl (centres unmarked) [Compound 183, 5-((3,4-dichlorobenzyl)amino)-1-(2-((1-(dimethylamino)-3-methoxypropan-2-yl)oxy)ethyl)-1H-pyrazolo[4,3-d]pyrimidin-7(6H)-one hydrochloride] | – | – | – | – | –
64 | 64 | 64 | 64 | 8 | 8 | > 64 | 64 µg/mL | – | – | CNCC(COC)OCCn1ncc2nc(NCc3ccc(Cl)c(Cl)c3)[nH]c(=O)c21.Cl (centres unmarked) [Compound 184, 5-((3,4-dichlorobenzyl)amino)-1-(2-((1-methoxy-3-(methylamino)propan-2-yl)oxy)ethyl)-1H-pyrazolo[4,3-d]pyrimidin-7(6H)-one] | – | – | – | – | –
16 | 16 | 16 | 16 | 8 | 4 | > 64 | >64. ug/ml | – | – | COCC(OCCn1ncc2nc(NCc3ccc(Cl)c(Cl)c3)[nH]c(=O)c21)c1cccnc1.Cl (centres unmarked) [Compound 185, 5-((3,4-Dichlorobenzyl)amino)-1-(2-(2-methoxy-1-(pyridin-3-yl)ethoxy)ethyl)-1H-pyrazolo[4,3-d]pyrimidin-7(6H)-one hydrochloride] | – | – | – | – | –
8 (≈ 17 µM) | 16 (≈ 34 µM) | 16 (≈ 34 µM) | 4 (≈ 8.5 µM) | > 64 | 4 (≈ 8.5 µM) | > 64 | >64 µg/mL | – | – | COC(=O)COCCOCCn1ncc2nc(NCc3ccc(Cl)c(Cl)c3)[nH]c(=O)c21 [Compound 186, methyl 2-(2-(2-(5-((3,4-dichlorobenzyl)amino)-7-oxo-6,7-dihydro-1H-pyrazolo[4,3-d]pyrimidin-1-yl)ethoxy)ethoxy)acetate] | – | – | – | – | –

The next lines start with the compound.

Structure (SMILES) | MIC [1] [µg/mL] | MIC [2, 8] [µg/mL] | MIC [3, 9] [µg/mL] | MIC [4] [µg/mL] | MIC [5, 10] [µg/mL] | MIC [6, 11] [µg/mL] | MIC [7, 12] [µg/mL] | MIC E. coli ATCC 25922 + 4 mM EDTA [7, 8] | MIC NRS 384 (MRSA) [1] | MIC E. faecium ATCC 700221 (VRE) [4] | MIC ([2]; 20 h) [µg/mL] | MIC ([3]; ATCC29212, 20 h) [µg/mL] | MIC ([5]; ATCC49619, 20 h) [µg/mL] | MIC ([6]; ATCC6633, 20 h) [µg/mL] | MIC ([7]; ATCC25922, 20 h) [µg/mL]
CN1CCCC(c2nc(Cn3ncc4nc(NCc5ccc(Cl)c(Cl)c5)[nH]c(=O)c43)co2)C1.Cl (centres unmarked) [Compound 172, 5-((3,4-dichlorobenzyl)amino)-1-((2-(1-methylpiperidin-3-yl)oxazol-4-yl)methyl)-1H-pyrazolo[4,3-d]pyrimidin-7(6H)-one hydrochloride] | 16 | 16 | 16 | 8 | 8 | 4 | > 64 | 64 µg/mL | – | – | – | – | – | – | –
Cl.O=c1[nH]c(NCc2ccc(Cl)c(Cl)c2)nc2cnn(Cc3coc(C4CCCNC4)n3)c12 (centres unmarked) [Compound 173, 5-((3,4-dichlorobenzyl)amino)-1-((2-(piperidin-3-yl)oxazol-4-yl)methyl)-1H-pyrazolo[4,3-d]pyrimidin-7(6H)-one hydrochloride] | 32 | 32 | 32 | 32 | 8 | 8 | > 64 | 64 µg/mL | – | – | – | – | – | – | –
Cl.O=C(O)c1ccc(OCCn2ncc3nc(NCc4ccc(Cl)c(Cl)c4)[nH]c(=O)c32)cn1 [Compound 175, 5-(2-(5-((3,4-dichlorobenzyl)amino)-7-oxo-6,7-dihydro-1H-pyrazolo[4,3-d]pyrimidin-1-yl)ethoxy)picolinic acid hydrochloride] | > 64 | > 64 | > 64 | > 64 | > 64 | > 64 | > 64 | >64 µg/mL | – | – | – | – | – | – | –
O=C1CC(Cn2ncc3nc(NCc4ccc(Cl)c(Cl)c4)[nH]c(=O)c32)CN1CCO (centres unmarked) [Compound 177, 5-((3,4-dichlorobenzyl)amino)-1-((1-(2-hydroxyethyl)-5-oxopyrrolidin-3-yl)methyl)-1H-pyrazolo[4,3-d]pyrimidin-7(6H)-one] | 64 (≈ 142 µM) | 64 (≈ 142 µM) | 32 (≈ 70.9 µM) | 16 (≈ 35.5 µM) | 4 (≈ 8.86 µM) | 16 (≈ 35.5 µM) | > 64 | >64 µg/mL | – | – | – | – | – | – | –
O=c1[nH]c(NCc2ccc(Cl)c(Cl)c2)nc2cnn(CCCOC3CC(O)C3)c12 (centres unmarked) [Compound 179, 5-((3,4-dichlorobenzyl)amino)-1-(3-(3-hydroxycyclobutoxy)propyl)-1H-pyrazolo[4,3-d]pyrimidin-7(6H)-one] | 4 (≈ 9.13 µM) | 8 (≈ 18.3 µM) | 4 (≈ 9.13 µM) | 2 (≈ 4.56 µM) | 4 (≈ 9.13 µM) | 1 (≈ 2.28 µM) | > 64 | >64 µg/mL | – | – | – | – | – | – | –
Cl.Cl.O=c1[nH]c(NCc2ccc(Cl)c(Cl)c2)nc2cnn(C3CCN(c4ccncc4)C3)c12 (centres unmarked) [Compound 180, 5-((3,4-Dichlorobenzyl)amino)-1-(1-(pyridin-4-yl)pyrrolidin-3-yl)-1H-pyrazolo[4,3-d]pyrimidin-7(6H)-one dihydrochloride] | – | 8 | 8 | – | 4 | 2 | 64 | 16 µg/mL | 4/4 | 4/4 | – | – | – | – | –
O=c1[nH]c(NCc2ccc(Cl)c(Cl)c2)nc2cnn(CC3CCCN3c3ccccn3)c12 (centres unmarked) [Compound 182, 5-((3,4-dichlorobenzyl)amino)-1-((1-(pyridin-2-yl)pyrrolidin-2-yl)methyl)-1H-pyrazolo[4,3-d]pyrimidin-7(6H)-one dihydrochloride] | – | – | – | – | – | – | – | >64 µg/mL | 4/8 | 4/2 | 4 | 8 | 8 | 2 | > 64

Source: US10723741B1, “DNA polymerase IIIC inhibitors and use thereof” (Acurx Pharmaceuticals, LLC, priority 2018, dated 2020)
